± gives the standard deviation of the averaged measurements.
Key:
Experiment in all cases: level (log10 ratio to DMSO vehicle control); higher = higher biomarker level / cell amount than vehicle control
Settings in all cases: in DMSO
[1] = compound: CNS(=O)(=O)C(F)(F)C(F)(F)C(F)(F)C(F)(F)C(F)(F)C(F)(F)C(F)(F)C(F)(F)F [N-Methylperfluorooctanesulfonamide]
Method: (§1)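 BioMAP Diversity Plus panel of 12 human primary cell co-culture systems (3C, 4H, LPS, SAg, BT, BF4T, BE3C, CASM3C, HDF3CGF, KF3CT, MyoF, Mphg). Compounds were added 1 h before stimulation and left for 24 h (MyoF 48 h; BT 72 h for soluble read-outs or 6 d for IgG). Biomarkers were read by ELISA, cytotoxicity by SRB, PBMC viability and proliferation by Alamar Blue. Each well value was divided by the mean of 8 DMSO control wells on the same plate and log10 transformed; duplicate blinded samples were tested at 4 concentrations.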

Azathioprine = compound: Cn1cnc([N+](=O)[O-])c1Sc1ncnc2[nH]cnc12 [Azathioprine]
Method: as §1

[2] = compound: O=S(=O)(O)C(F)(F)C(F)(F)C(F)(F)C(F)(F)C(F)(F)C(F)(F)C(F)(F)C(F)(F)F [Potassium perfluorooctanesulfonate]
Method: as §1

[3] = compound: O=P(O)(O)CCC(F)(F)C(F)(F)C(F)(F)C(F)(F)C(F)(F)C(F)(F)C(F)(F)C(F)(F)F [((Perfluorooctyl)ethyl)phosphonic acid]
Method: as §1

[4] = compound: C=C(C)C(=O)OCC(F)(F)C(F)(F)C(F)(F)C(F)(F)C(F)(F)C(F)(F)C(F)(F)F
Method: as §1

[5] = compound: O=C(O)C(F)(F)OC(F)(F)C(F)(F)OC(F)(F)C(F)(F)C(F)(F)C(F)(F)F [Perfluoro-3,6-dioxadecanoic acid]
Method: as §1

1-(Perfluorohexyl)octane = compound: CCCCCCCCC(F)(F)C(F)(F)C(F)(F)C(F)(F)C(F)(F)C(F)(F)F [1-(Perfluorohexyl)octane]
Method: as §1

Test System	level (log10) ([1]; 6700 nM)	level (log10) ([1]; 20000 nM)	level (log10) ([1]; 60000 nM)	level (log10) (Azathioprine; 1400 nM)	level (log10) (Azathioprine; 4200 nM)	level (log10) (Azathioprine; 13000 nM)	level (log10) (Azathioprine; 38000 nM)	level (log10) ([2]; 6700 nM)	level (log10) ([2]; 20000 nM)	level (log10) ([2]; 60000 nM)	level (log10) ([3]; 6700 nM)	level (log10) ([3]; 20000 nM)	level (log10) ([3]; 60000 nM)	level (log10) ([4]; 6700 nM)	level (log10) ([4]; 20000 nM)	level (log10) ([5]; 6700 nM)	level (log10) ([5]; 20000 nM)	level (log10) ([5]; 60000 nM)	level (log10) (1-(Perfluorohexyl)octane; 6700 nM)	level (log10) (1-(Perfluorohexyl)octane; 20000 nM)
3C:CCL2/MCP-1	0.0175 ± 0.0021	0.0235 ± 0.028	0.031 ± 0.034	0.0095 ± 0.0064	-0.006	0.009 ± 0.0014	-0.0165 ± 0.015	-0.056 ± 0.098	-0.0125 ± 0.0035	0.009 ± 0.02	0.0005 ± 0.0092	-0.0115 ± 0.0078	-0.0085 ± 0.06	-0.013 ± 0.0042	0.018 ± 0.025	0.002 ± 0.0099	0.013 ± 0.0057	0.0195 ± 0.023	-0.008 ± 0.0014	0.0205 ± 0.023
3C:CD54/ICAM-1	-0.0265 ± 0.022	0.103 ± 0.026	0.043 ± 0.0014	0.0035 ± 0.005	-0.014 ± 0.031	-0.0085 ± 0.0092	-0.016 ± 0.013	-0.001 ± 0.0071	0.0235 ± 0.005	0.046 ± 0.0071	-0.012 ± 0.014	-0.0185 ± 0.012	-0.021 ± 0.0085	0.019 ± 0.028	0.014 ± 0.018	-0.003 ± 0.028	-0.0025 ± 0.018	0.019 ± 0.011	0.0025 ± 0.013	0.0165 ± 0.005
3C:CD62E/E-Selectin	-0.011 ± 0.025	0.01 ± 0.023	-0.072 ± 0.011	-0.0005 ± 0.012	-0.013 ± 0.03	-0.033 ± 0.0099	-0.0015 ± 0.0078	-0.0025 ± 0.015	0.0195 ± 0.046	0.063 ± 0.035	-0.011 ± 0.025	-0.032 ± 0.021	-0.056 ± 0.011	0.0095 ± 0.023	0.0075 ± 0.0092	0.0155 ± 0.043	-0.001 ± 0.037	0.004 ± 0.052	-0.0065 ± 0.011	-0.02 ± 0.0071
3C:CD106/VCAM-1	-0.03 ± 0.038	0.049 ± 0.024	-0.0295 ± 0.012	0.006 ± 0.017	-0.0165 ± 0.0078	-0.0245 ± 0.022	-0.0595 ± 0.036	0.001 ± 0.016	0.013 ± 0.023	0.0375 ± 0.037	-0.0115 ± 0.016	-0.0345 ± 0.005	-0.054 ± 0.0042	-0.0145 ± 0.005	-0.0025 ± 0.018	0.0005 ± 0.013	-0.0035 ± 0.019	-0.0135 ± 0.021	-0.009 ± 0.0057	0.0045 ± 0.0092
3C:CD141/Thrombomodulin	-0.002 ± 0.0085	-0.009 ± 0.018	-0.0345 ± 0.013	-0.0275 ± 0.026	-0.0055 ± 0.036	-0.041 ± 0.065	-0.0855 ± 0.049	0.007 ± 0.018	-0.0055 ± 0.033	0.041 ± 0.0071	-0.0115 ± 0.00071	-0.0115 ± 0.0078	0.013 ± 0.016	-0.038 ± 0.0057	-0.0015 ± 0.032	-0.014 ± 0.048	-0.0345 ± 0.039	-0.016 ± 0.04	0.0125 ± 0.015	-0.0105 ± 0.018
3C:CD142/Tissue Factor	-0.128 ± 0.0057	-0.108 ± 0.031	-0.106 ± 0.012	0.02 ± 0.024	0.0255 ± 0.046	0.042 ± 0.051	0.042 ± 0.02	-0.018 ± 0.024	-0.0065 ± 0.04	0.049 ± 0.02	0.025 ± 0.03	0.0455 ± 0.015	0.101 ± 0.023	-0.022 ± 0.058	-0.005 ± 0.051	-0.0245 ± 0.059	0.0095 ± 0.015	-0.074 ± 0.024	-0.0025 ± 0.0078	0.0215 ± 0.023
BE3C:Keratin 8/18	-0.0025 ± 0.012	-0.0135 ± 0.0078	-0.0055 ± 0.023	-0.009 ± 0.033	0.012 ± 0.014	-0.02 ± 0.047	-0.0095 ± 0.021	0.0225 ± 0.00071	0.013 ± 0.0085	-0.0155 ± 0.019	-0.015 ± 0.011	-0.012 ± 0.0028	-0.006 ± 0.021	-0.008 ± 0.017	-0.028 ± 0.027	-0.0075 ± 0.013	-0.0135 ± 0.026	0.027 ± 0.0042	0.011 ± 0.0071	0.004 ± 0.054
BE3C:MMP-1	0.0895 ± 0.03	0.0995 ± 0.025	0.001 ± 0.054	-0.0025 ± 0.013	0.001 ± 0.0057	-0.0235 ± 0.019	-0.0645 ± 0.0021	0.182 ± 0.038	0.157 ± 0.021	0.198 ± 0.012	0.0705 ± 0.011	0.111 ± 0.018	0.125 ± 0.061	0.02 ± 0.021	0.0655 ± 0.064	0.067 ± 0.0014	0.172 ± 0.0035	0.355 ± 0.021	0.0155 ± 0.018	0.0395 ± 0.053
BE3C:MMP-9	-0.094 ± 0.0014	-0.11 ± 0.0057	-0.102 ± 0.0064	0.0075 ± 0.046	0.0285 ± 0.04	-0.0135 ± 0.03	-0.0485 ± 0.028	-0.0035 ± 0.012	-0.13 ± 0.013	-0.126 ± 0.024	-0.0155 ± 0.026	-0.006 ± 0.044	0.014 ± 0.016	0 ± 0.0042	-0.0005 ± 0.0092	-0.005 ± 0.0099	0.007 ± 0.031	-0.0195 ± 0.0021	-0.0065 ± 0.0021	-0.005 ± 0.0057
BE3C:PAI-I	-0.157 ± 0.013	-0.162 ± 0.029	-0.138 ± 0.025	-0.0235 ± 0.044	0.015 ± 0.042	0.003 ± 0.05	-0.071 ± 0.03	-0.0115 ± 0.012	-0.255 ± 0.03	-0.253 ± 0.037	0.015 ± 0.0014	-0.0115 ± 0.011	-0.032 ± 0.0042	0.0055 ± 0.0078	0.0105 ± 0.018	0.0345 ± 0.021	0.009 ± 0.031	-0.11 ± 0.005	-0.025 ± 0.0057	-0.024
BE3C:SRB	-0.0085 ± 0.00071	-0.014 ± 0.0085	0.0005 ± 0.029	0.013 ± 0.016	-0.005	-0.0095 ± 0.0078	-0.0045 ± 0.0092	-0.0075 ± 0.0021	-0.245 ± 0.034	-0.306 ± 0.033	-0.004	-0.011 ± 0.0085	0.0015 ± 0.015	-0.0015 ± 0.0021	-0.0025 ± 0.00071	-0.0015 ± 0.0064	-0.0095 ± 0.013	-0.0435 ± 0.022	-0.0005 ± 0.0021	0.002 ± 0.0028
BE3C:tPA	0.186 ± 0.0057	0.192 ± 0.0099	0.176 ± 0.005	-0.005 ± 0.078	-0.0285 ± 0.083	-0.108 ± 0.083	-0.236 ± 0.079	0.115 ± 0.0035	-0.101 ± 0.027	-0.165 ± 0.03	0.123 ± 0.005	0.191 ± 0.0014	0.202 ± 0.032	-0.013 ± 0.0014	0.007	-0.0345 ± 0.029	-0.09 ± 0.04	-0.156 ± 0.018	-0.0015 ± 0.03	0 ± 0.033
BE3C:uPA	0.008 ± 0.0085	0.0065 ± 0.0064	0.003 ± 0.0014	-0.0025 ± 0.016	0 ± 0.013	-0.0115 ± 0.019	-0.041 ± 0.016	0.0125 ± 0.0092	-0.028 ± 0.0099	-0.036 ± 0.016	0.014 ± 0.0014	0.022 ± 0.0014	0.023 ± 0.0014	-0.008 ± 0.011	-0.004 ± 0.021	0.006 ± 0.025	-0.0045 ± 0.025	-0.003 ± 0.011	-0.0145 ± 0.012	-0.0145 ± 0.0092
CASM3C:CCL2/MCP-1	0.0095 ± 0.022	0.0295 ± 0.012	0.0645 ± 0.039	0.0135 ± 0.044	-0.012 ± 0.014	-0.0195 ± 0.021	-0.001 ± 0.052	0.001 ± 0.024	0.01 ± 0.0057	0.0405 ± 0.021	-0.007 ± 0.0071	-0.0085 ± 0.013	0.012 ± 0.058	-0.015 ± 0.0042	0.007 ± 0.018	-0.012 ± 0.0085	-0.0175 ± 0.013	0.043 ± 0.069	-0.0065 ± 0.018	0.001 ± 0.0042
